Reference: patent US8981149B2, “Compounds modulating the hedgehog protein signaling pathway, marked forms thereof, and applications” (Centre National De La Recherche Scientifique, priority 2011, dated 2015)
Read-outs that look alike come from different tables or passages of the source.

Experiments:
[1] = target: T1, human Smoothened receptor (Homo sapiens, UniProt Q99835); assay: Inhibition of binding of 3H-(7d) to membranes of HEK-hSmo cells; details: HEK-hSmo membranes
T1 construct: expressed in transfected cells
T1 sequence (Q99835 28-787): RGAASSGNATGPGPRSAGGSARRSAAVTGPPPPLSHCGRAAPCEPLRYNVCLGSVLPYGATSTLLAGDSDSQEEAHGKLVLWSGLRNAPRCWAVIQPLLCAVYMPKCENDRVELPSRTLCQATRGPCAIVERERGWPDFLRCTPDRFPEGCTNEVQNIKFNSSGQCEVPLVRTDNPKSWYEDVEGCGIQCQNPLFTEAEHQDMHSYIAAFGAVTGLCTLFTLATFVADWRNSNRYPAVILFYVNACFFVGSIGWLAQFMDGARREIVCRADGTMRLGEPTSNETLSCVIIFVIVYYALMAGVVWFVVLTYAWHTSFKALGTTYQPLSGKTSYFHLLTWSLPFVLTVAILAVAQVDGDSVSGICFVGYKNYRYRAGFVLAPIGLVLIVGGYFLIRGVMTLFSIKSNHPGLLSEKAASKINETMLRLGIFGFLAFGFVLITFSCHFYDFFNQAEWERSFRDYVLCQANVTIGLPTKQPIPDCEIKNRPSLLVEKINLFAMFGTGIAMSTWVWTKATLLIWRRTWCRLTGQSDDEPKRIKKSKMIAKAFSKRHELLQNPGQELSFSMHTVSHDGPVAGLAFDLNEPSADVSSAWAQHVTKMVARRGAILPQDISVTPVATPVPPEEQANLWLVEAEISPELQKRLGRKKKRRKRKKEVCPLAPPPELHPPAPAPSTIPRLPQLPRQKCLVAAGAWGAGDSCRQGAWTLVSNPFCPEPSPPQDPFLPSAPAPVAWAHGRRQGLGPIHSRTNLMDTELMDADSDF
Description: (§1) The binding test is carried out on membranes enriched with Smoothened receptor. Cells of the HEK-hSmo line were used for preparing these membranes. The cells are washed and recovered in iced PBS. After centrifugation at 100 g for 7 minutes at 4° C., the pellet is taken up in 10 times its volume of an iced buffer A (50 mM HEPES, pH 7.4, 1 mM EDTA) with addition of 10 μl of a cocktail of protease inhibitors (PEAK, Sigma) per ml of buffer, then it is homogenized using a Polytron grinding mill. After centrifugation at 500 g for 30 minutes at 4° C., which makes it possible to remove the nuclei from the cells, the supernatant is centrifuged again at 48 000 g for 45 min at 4° C. The pellet is taken up in 2 ml of buffer A with PEAK added, then the suspension is homogenized using a glass conical grinding mill and is passed through a 23 G needle. Finally, aliquots are placed in Eppendorf tubes and stored at −80° C. The concentration of total protein in the preparation is determined by Lowry's method using BSA for preparing the standard range.
The membranes are resuspended in a buffer (50 mM HEPES and 3 mM MgCl2) containing 0.2% of BSA. The tests of binding of ^3H-(7d) are carried out in polypropylene tubes. The membranes (2 μg of proteins) are incubated with the ^3H-(7d) in the presence or absence of the cold test compounds for 3 hours at 37° C. in a final volume of 400 μl. Incubation is stopped by immersing the tubes in iced water followed by rapid filtration (Brandel) through a glass fiber filtration membrane (GF/C) treated beforehand with 0.3% of polyethylenimine, which can reduce the nonspecific binding of the ^3H-(7d) to the filtration membrane. The radioactivity retained on the filter is measured in the presence of 3 ml of scintillating agent in a liquid scintillation counter.
In this experiment, the cold ligand competes with the radioactive ligand for binding to the receptor, and the affinity (Ki) of each cold ligand for the receptor can be analyzed based on the IC50 values deduced from the inhibition curves.

PCGs of rat cerebellum = assay: Proliferation of granule cell precursors (PCGs) of rat cerebellum induced by SAG, 3H-thymidine incorporation; assay type: cell-based; details: for IC50: proliferation induced by SAG (0.01 μM), 3H-thymidine incorporation, read-out: IC50 ± SEM, PCGs of rat cerebellum (3)
Description: The granule cell precursors (GCP) are isolated from cerebellums of rats (IFFA-CREDO, France), 8 days after birth (P8). The cerebellums are taken, cut into small pieces, placed in Krebs-Ringer buffer (120 mM NaCl, 5 mM KCl, 1 mM KH2PO4, 25 mM NaHCO3, 15 mM glucose, 0.04 mM phenol red) and incubated for 15 minutes at room temperature in a dissociation buffer composed of Krebs-Ringer with addition of 250 mg/ml of trypsin (Sigma, France). Enzymatic dissociation is stopped by adding an equal volume of Krebs-Ringer buffer containing 250 mg/ml of a trypsin inhibitor and 80 mg/ml of DNase (Sigma, France). The tissue is centrifuged at 100 g for 10 seconds and the pellet obtained is resuspended and triturated using Pasteur pipettes of decreasing diameter to obtain a suspension of isolated cells. This suspension is centrifuged at 200 g for 5 minutes and the pellet obtained is resuspended in Neurobasal medium supplemented with 1 mM of pyruvate, 2 mM L-glutamine, penicillin/streptomycin and 1% of supplement N2, 60 mg/ml N-acetyl cysteine and […] of bovine serum albumin (BSA, Sigma, France).
The cerebellar GCPs obtained are transferred to 96-well plates treated beforehand with poly-D-lysine at a density of 2.10^5 cells/well. SAG in the presence or absence of the other test compounds is added immediately. 12 hours before the end of culture, tritiated thymidine (^3H-thymidine) is added. The cells are aspirated and recovered on a glass fiber filter (GF/C) using an automated cell collector (Brandel, USA). The amount of radioactivity incorporated by the cells was quantified in the presence of a scintillating agent in a liquid scintillation counter (Wallac, USA).
The cerebellar PCGs proliferate in response to activation of the Shh signalling pathway, a response that can be inhibited by the Smo antagonists (Rohatgi et al., 2009, Proc. Natl. Acad. Sci. USA 106: 3196-201). We therefore analyzed the capacity of compound (7d) for inhibiting the proliferation of the PCGs of rat cerebellum in primary culture by measuring the incorporation of tritiated thymidine, a marker of DNA newly synthesized during the proliferation process.

[2] = target: T1, human Smoothened receptor; assay: Saturation of binding of 3H-(7d) to membranes of HEK-hSmo cells; details: read-out: Kd of specific binding
Description: as §1, with “range. This concentration is 10.9 mg/ml.” for “range.”
The membranes are resuspended in a buffer (50 mM HEPES and 3 mM MgCl2) containing 0.2% of BSA. The tests of binding of ^3H-(7d) are carried out in polypropylene tubes. […] The radioactivity retained on the filter is measured in the presence of 3 ml of scintillating agent in a liquid scintillation counter. […]

IC50 ([1]; 0.35 nM 3H-(7d), 3 hours at 37° C., read-out: IC50 ± SEM, binding of compound 3H-(7d)): 1.5 nM | Ki ([1]; calculated from IC50, read-out: Ki ± SEM, binding of compound 3H-(7d)): 0.7 ± 0.1 nM | Kd [2]: 0.3 nM
SMILES: COc1cc(C(=O)NC(=N)Nc2ccc(C)c(NC(=O)c3ccc(CCc4ccccc4)cc3)c2)cc(OC)c1OC.Cl [Compound 7d, 3,4,5-trimethoxy-N—(N-(4-methyl-3-(4-phenethylbenzamido)phenyl)carbamimidoyl)benzamide hydrochloride]
IC50 (PCGs of rat cerebellum; Rattus norvegicus): 0.45 nM | Type of antagonism on proliferation of PCGs (PCGs of rat cerebellum; induced by SAG (0.01 μM)): complete antagonist | IC50 (PCGs of rat cerebellum; hydrochloride): 0.4 ± 0.1 nM
